Key:
[1] = In vivo evaluation of the complex of nanoparticles and PSP: plasma PSP concentration and pharmacokinetic parameters after duodenal administration; conditions: male, SD, rats, 9.4 mg in terms of PSP per rat, n=6, mean ± S.D.
Protocol: SD male rats (7 weeks old, about 200 g) were fasted for 24 hours. Under etherization, laparotomy was performed. By use of an injection needle, which was inserted through the pyrolus, the nanoparticle preparation (0.5 ml) prepared in Example 1 or the control preparation (0.5 ml) was administered duodenumally to the rats (dose: 9.4 mg in terms of PSP per rat; n=6). The cut was closed immediately after administration. Blood was collected from the carotid artery at 0.5, 1, 2, 4, 8, 12, and 24 hours following the administration. In accordance with the method of […] (Journal of Pharmaceutical Science, 79, 334, 1990), the plasma PSP concentration of each rat was measured. The plasma (0.3 ml) that had been centrifugally separated from the collected blood, purified water (0.3 ml), and aqueous 0.1 N NaOH solution (0.9 ml) were mixed. The mixture was filtered through use of an ultrafilter membrane (molecular weight of fractionation=10,000), to thereby remove proteins, etc. The filtrate was used as a sample solution. Separately, standard solutions were prepared through use of aqueous PSP-Na solutions (starting from 9.4 mg/ml in terms of PSP, a series of 2-fold dilutions) (0.3 ml each), a blank plasma from each rat (0.3 ml), and aqueous 0.1 N NaOH solution (0.9 ml) were mixed and ultrafiltered. For each of the sample solutions and standard solutions, absorption was determined through use of a spectrometer at the wavelength of 560 nm. Based on the results obtained from the standard solutions, a calibration curve was obtained, and the plasma PSP concentrations were measured. Based on the obtained time-plasma PSP concentration profile, pharmacokinetic parameters were calculated.

[2] = test system: ionized calcium concentration in blood; experiment: In vivo evaluation of nanoparticle-sCT preparations: change of blood ionized calcium concentration after peroral administration; set-up: species or system SD male rats; conditions: rats fasted 24 h, 0.5 ml preparation, single administration
Protocol: To SD male rats (7 weeks old, about 200 g) fasted for 24 hours were administered perorally the nanoparticle preparation (0.5 ml) prepared in Example 3 or the control preparation (0.5 ml) (n=5). After administration, blood was collected from the tail vein of each rat in an amount of about 60 μl at 40 minutes, 80 minutes, 2, 3, 4, 6, and 8 hours following the administration.
Using a 634 Ca^++/pH analyzer (Ciba-Coning), the concentration of ionized calcium in the collected blood was measured. The difference between the ionized calcium concentration at time 0 and that at each of the aforementioned times was calculated and plotted. From the plots, presence or absence of the effect of absorption enhancement obtained through formation of nanoparticles was determined.
In this connection, sCT is known to have the pharmacological effect of reducing the blood ionized calcium concentration.
By use of the nanoparticle preparation or the control preparation obtained in Example 7, the procedure of Example 4 was repeated to thereby determine the presence or absence of the effect of absorption enhancement obtained by the formation of nanoparticles.
By use of the nanoparticle preparation or the control preparation obtained in Example 9, the procedure of Example 4 was repeated to thereby determine the presence or absence of the effect of absorption enhancement obtained by the formation of nanoparticles. […]

| AUC(0-inf) [1] [ng·h/mL] | Cmax [1] [ng/mL] | Tmax [1] [h] | MRT last ([1]; read-out: MRT0-24 h) [h] | Molecule | effect of reducing the blood ionized calcium concentration [2] |
| --- | --- | --- | --- | --- | --- |
| 9970 ± 2200 | 2000 ± 290 | 0.92 ± 0.2 | 4.57 ± 0.34 | O=S1(=O)OC(c2ccc(O)cc2)(c2ccc(O)cc2)c2ccccc21 [Aq. PSP-Na sol. (control prep.), phenolsulfonphthalein] | – |
| – | – | – | – | salmon calcitonin [aqueous sCT solution] | slightly decreased |
